Results reported in patent US4425356A, “Lankacidin derivatives used in swine husbandry” (Takeda Chemical Industries, Ltd., priority 1980, dated 1984).
≈ marks a conversion by molar mass, not a printed value. Where two headings read alike, the source gives them in different places.

Tests used:
[1] = system: Treponema hyodysenteriae 78/A strain; assay: efficacy against swine dysentery under experimental infection conditions in pigs (drug in feed), Test Examples 5-7; format: in vivo, Landrace pigs
Experimental: Lankacidin C was tested for efficacy against swine dysentery under experimental infection conditions. Thus, twelve 6-week-old Landrace pigs (4 per group) were used. The test drug was admixed to a concentration of 100 ppm with the domestically formulated starter feed for young pigs without antibiotics. The animals were provided with the ration ad libitum. Infection of the pigs was effected by direct intragastrical administration to the SPF pigs of an inoculum prepared by preliminary anaerobic cultivation of the Treponema hyodysenteriae 78/A strain on a 5% horse blood added agar plate, mashing together with the culture medium and admixing with 5% mucin added phosphate buffer. Colonic contents and mucosa were collected from pigs which developed typical signs of swine dysentery, and diluted two-fold with 5% mucin added phosphate buffer. The dilution was used as the final inoculum, and 100 ml of the dilution was directly injected into the stomach of test pigs at the age of 7 weeks (fasted for 24 hours before infection). The pigs were fed for 21 days following infection.
The data are each the mean value per head for the 21day period from
infection to autopsy. Different alphabetic letters on the same line
indicate that there is a significant difference between the data to which
they are attached (P <0.05).
Lankacidin C was tested at concentrations in feed of 100 ppm and lower by the same method as in Test Example 5, with carbadox, a commonly used anti-swine-dysentery agent, for comparison.
The anti-swine-dysentery effects of 10 ppm each of lankacidin A and lankacidin C 14-propionate were examined by the procedure of Test Example 6.

[2] = acute toxicity tests with mice; details: mouse, in vivo
From the text: The toxicity of compound (I) in animals is very low.

[3] = system: Treponema hyodysenteriae 78/A strain; assay: therapeutic administration in pigs showing clinical signs of swine dysentery, Test Examples 8-9; format: in vivo; details: for Condition of feces: Table 9, individual pig
Experimental: This test was conducted under the conditions of so-called therapeutic administration. […] The method of infection was the same as in Test Example 5. […] Simultaneously with showing of the signs, the pigs were provided with a feed containing 50 ppm of lankacidin C. […] After 2 days, the viable count for the pathogen in feces was below the detection limit (10^2 CFU/g).
The condition of feces was rated at one of the following four classes:
.circle. normal; loose; diarrheal; .circleincircle. mucous and bloody
count is below the detection limit (10^2 CFU/g).
The symbol * indicates those days on which the feed containing 50 ppm of
lankacidin C was given.
Lankacidins were tested for therapeutic effects in swine dysentery under therapeutic conditions in the same manner as in Test Example 8. The effects were judged based on the condition of feces.
The condition of feces was rated at one of the following four classes;
The symbol * indicates the days on which the feed containing 50 ppm of th

[4] = system: Treponema hyodysenteriae; assay: efficacy in experimental infection in mice with swine dysentery, Test Example 4; format: in vivo; details: 5 mg/kg/day oral, day 1 to day 4; seven days after infection
Experimental: Lankacidin A, lankacidin C, lankacidin C 8-acetate, lankacidin C 14-propionate, lankacidinol A and lankacidinol were tested for efficacy against swine dysentery in experimental infection in mice with swine dysentery.
The similar experimental infection model of swine dysentery in mice as that described, for example, by Joens et al. in Infection and Immunity, 25, 757-760 (1979), American Journal of Veterinary Research, 41, 1225-1226 (1980) and Veterinary Record, 107, 527-529 (1980) was used. Thus, a field isolate of Treponema hyodysenteriae anaerobically cultivated on the 5% defibrinated horse blood added Trypticase soy agar (BBL) plate was mashed together with the culture medium and diluted two-fold with Trypticase soy broth (BBL). Mice were inoculated intragastrically with this infecting dilution. Each test agent was suspended in 5% gum arabic solution and forcibly administered orally from day 1 to day 4 following infection. Seven days after infection, the cecum was examined for lesions, and the cecum was mashed together with the contents and subjected to Treponema hyodysenteriae counting. Excellent efficacy was produced in each of the drug-administered groups.

[5] = system: Treponema hyodysenteriae; assay: in vitro antibacterial activity (MIC, agar dilution method), Test Examples 1-3; format: cell-based; details: Brachyspira hyodysenteriae, 48 h, 37° C., 2 days, anaerobic
Experimental: Several agents were tested for in vitro antibacterial activity against Treponema hyodysenteriae, the pathogenic bacteria causing swine dysentery, by the method of testing drug sensitivity of Treponema hyodysenteriae (Kashiwazaki et al. Abstracts of Papers presented at the 82nd Meeting of the Japanese Society of Veterinary Science, page 101, 1976).
(1) Strains: These strains belong to Treponema hyodysenteriae isolated
from the bloody mucous faeces of dysenteric pigs in Japan.
(2) Antimicrobial activity assay: Agar dilution method
(3) Inoculum size: A loopful of bacterial suspension (10^6 CFU/ml)
(4) Cultural conditions: GasPak anaerobic system (BBL), 37° C., 2
Typical agents among compound (I) were tested for in vitro antibacterial activity by the same method as in Test Example 1.
The experimental conditions are the same as in Test Example 1 (Table 1).
Agents of compound (I) were tested for in vitro antibacterial activity by the same method as in Test Example 1.

[6] = 10 ppm in feed, 21-day test period
[7] = 10 ppm in feed, 21 day period, mean per head
[8] = strain 78/A, read-out: Minimum Inhibitory Concentration
[9] = strain CD1 (CD-1), read-out: Minimum Inhibitory Concentration
[10] = strain DJ70P1, read-out: Minimum Inhibitory Concentration
[11] = strain MK-2, read-out: Minimum Inhibitory Concentration

With `CCC(=O)OC1C=CC(C)=CCC(O)C=CC(C)=CC(NC(=O)C(C)=O)C2(C)C(=O)OC(C1)C(C)C2=O` (stereo not drawn) [Lankacidin C 14-propionate, lankacidin C 14-propionate] the “Number of pigs from which the pathogen was detected, in colonic mucosa” value ([1]; 10 ppm in feed) was 0, the “Number of pigs from which the pathogen was detected, in feces” value ([1]; 10 ppm in feed) was 0 and the “Number of pigs showing colonic lesions” value ([1]; 10 ppm in feed) was 0. The “Number of days on which diarrhea was observed” value [1, 6] was 0 days, the “Number of days on which mucous bloody stool was observed” value [1, 6] was 0 days and the “Number of pigs showing signs of infection/number of pigs used” value [1, 6] was 0/4. The Body weight gain [1, 7] was 562 grams/day, the Feed conversion [1, 7] was 1.81 and the Feed intake [1, 7] was 21.1 kg. The “Body weight at the time of completion of test” value ([1]; 10 ppm in feed, mean per head) was 23.1 kg, the “effect against swine dysentery (in words)” value ([1]; pig, in vivo) was “distinctly effective against swine dysentery” and the LD50 ([2]; ip, intraperitoneal, read-out: intraperitoneal LD50) was greater than 10000 mg/kg. For the same compound, the LD50 ([2]; oral, read-out: oral LD50) was greater than 10000 mg/kg, the “therapeutic effect in swine dysentery (in words)” value ([3]; 50 ppm in feed) was “therapeutically effective” and the Condition of feces ([3]; 50 ppm in feed days 0-6, day 7) was “.circle”. For the same compound, the Condition of feces ([3]; 50 ppm in feed days 0-6, day 8) was “.circle”, the Condition of feces ([3]; 50 ppm in feed days 0-6, day 9) was “.circle” and the Condition of feces ([3]; 50 ppm in feed days 0-6, day 10) was “.circle”. The Condition of feces ([3]; 50 ppm in feed days 0-6, day 11) was “.circle”, the Condition of feces ([3]; 50 ppm in feed days 0-6, day 12) was “.circle” and the Condition of feces ([3]; 50 ppm in feed days 0-6, day 13) was “.circle”. For the same compound, the Condition of feces ([3]; 50 ppm in feed days 0-6, day 14) was “.circle”, the Condition of feces ([3]; 50 ppm in feed days 0-6, day 15) was “.circle” and the Condition of feces ([3]; 50 ppm in feed days 0-6, day 16) was “.circle”. For the same compound, the Condition of feces ([3]; 50 ppm in feed days 0-6, day 17) was “.circle”, the Condition of feces ([3]; 50 ppm in feed days 0-6, day 18) was “.circle” and the Condition of feces ([3]; 50 ppm in feed days 0-6, day 19) was “.circle”. The Condition of feces ([3]; 50 ppm in feed days 0-6, day 20) was “.circle”, the Condition of feces ([3]; 50 ppm in feed days 0-6, day 21) was “.circle” and the Condition of feces ([3]; 50 ppm in feed, day 0 after manifestation of signs) was “.circleincircle”. The Condition of feces ([3]; 50 ppm in feed, day 1) was “.circle”, the Condition of feces ([3]; 50 ppm in feed, day 2) was “.circle” and the Condition of feces ([3]; 50 ppm in feed, day 3) was “.circle”. For the same compound, the Condition of feces ([3]; 50 ppm in feed, day 4) was “.circle”, the Condition of feces ([3]; 50 ppm in feed, day 5) was “.circle” and the Condition of feces ([3]; 50 ppm in feed, day 6) was “.circle”. The “Number of mice from which the pathogen was detected/number of mice tested” value [4] was 1/5, the “Number of mice with cecal lesions/number of mice tested” value [4] was 0/5 and the MIC [5, 8] was 1.56 µg/mL (≈ 3.03 µM). It also gave an MIC [5, 9] of 3.13 µg/mL (≈ 6.07 µM), an MIC [5, 10] of 3.13 µg/mL (≈ 6.07 µM) and an MIC [5, 11] of 1.56 µg/mL (≈ 3.03 µM).

In the case of `CC(=O)OC1C=CC(C)=CC(NC(=O)C(C)=O)C2(C)C(=O)OC(CC(O)C=CC(C)=CC1)C(C)C2=O` (stereo not drawn) [Lankacidin C 8-acetate, lankacidin C 8-acetate], the “Number of mice from which the pathogen was detected/number of mice tested” value [4] was 0/5, the “Number of mice with cecal lesions/number of mice tested” value [4] was 0/5 and the MIC [5, 8] was 0.39 µg/mL (≈ 0.778 µM). It also gave an MIC [5, 9] of 0.39 µg/mL (≈ 0.778 µM), an MIC [5, 10] of 0.78 µg/mL (≈ 1.56 µM) and an MIC [5, 11] of 0.39 µg/mL (≈ 0.778 µM).

In the case of `CC(=O)OC1C=CC(C)=CCC(O)C=CC(C)=CC(NC(=O)C(C)O)C2(C)C(=O)OC(C1)C(C)C2=O` (stereo not drawn) [Lankacidinol A, lankacidinol A], the “Number of mice from which the pathogen was detected/number of mice tested” value [4] was 1/5, the “Number of mice with cecal lesions/number of mice tested” value [4] was 0/5 and the MIC [5, 8] was 12.5 µg/mL (≈ 24.8 µM). For the same compound, the MIC [5, 9] was 25 µg/mL (≈ 49.6 µM), the MIC [5, 10] was 25 µg/mL (≈ 49.6 µM) and the MIC [5, 11] was 25 µg/mL (≈ 49.6 µM).

In the case of `CC1=CCC(O)C=CC(C)=CC(NC(=O)C(C)O)C2(C)C(=O)OC(CC(O)C=C1)C(C)C2=O` (stereo not drawn) [Lankacidinol, lankacidinol], the “Number of mice from which the pathogen was detected/number of mice tested” value [4] was 0/5, the “Number of mice with cecal lesions/number of mice tested” value [4] was 0/5 and the MIC ([5]; read-out: Minimum Inhibitory Concentration, strain 78/A) was 12.5 µg/mL (≈ 27.1 µM). The MIC ([5]; read-out: Minimum Inhibitory Concentration, strain CD1 (CD-1)) was 12.5 µg/mL (≈ 27.1 µM), the MIC ([5]; read-out: Minimum Inhibitory Concentration, strain DJ70P1) was 25 µg/mL (≈ 54.2 µM) and the MIC ([5]; read-out: Minimum Inhibitory Concentration, strain MK-2) was 25 µg/mL (≈ 54.2 µM).
